According to ChEMBL document CHEMBL4507301 (2021):

What was measured:
[1] = target: Death-associated protein kinase 3 (Homo sapiens) (UniProt O43293); settings: Compound concentration 1000.0 nM
[2] = target: Fibroblast growth factor receptor 4 (Homo sapiens) (UniProt P22455); settings: Compound concentration 1000.0 nM
[3] = target: STE20/SPS1-related proline-alanine-rich protein kinase (Homo sapiens) (UniProt Q9UEW8); settings: Compound concentration 1000.0 nM
[4] = target: SRSF protein kinase 1 (Homo sapiens) (UniProt Q96SB4); settings: Compound concentration 1000.0 nM
[5] = target: Mitogen-activated protein kinase kinase kinase 12 (Homo sapiens) (UniProt Q12852); settings: Compound concentration 1000.0 nM
[6] = target: Serine/threonine-protein kinase DCLK3 (Homo sapiens) (UniProt Q9C098); settings: Compound concentration 1000.0 nM
[7] = target: Platelet-derived growth factor receptor alpha (Homo sapiens) (UniProt P16234); settings: Compound concentration 1000.0 nM
[8] = target: Cytoplasmic tyrosine-protein kinase BMX (Homo sapiens) (UniProt P51813); settings: Compound concentration 1000.0 nM
[9] = target: Cyclin-dependent kinase 15 (Homo sapiens) (UniProt Q96Q40); settings: Compound concentration 1000.0 nM
[10] = target: Serine/threonine-protein kinase 24 (Homo sapiens) (UniProt Q9Y6E0); settings: Compound concentration 1000.0 nM
[11] = target: Tyrosine-protein kinase ABL1 (Homo sapiens) (UniProt P00519); settings: Compound concentration 1000.0 nM
[12] = target: Muscarinic acetylcholine receptor M3 (Homo sapiens) (UniProt P20309); settings: Compound concentration 10.0 uM
[13] = target: Cyclin-G-associated kinase (Homo sapiens) (UniProt O14976); settings: Compound concentration 1000.0 nM
[14] = target: Phosphatidylinositol 4,5-bisphosphate 3-kinase catalytic subunit beta isoform (Homo sapiens) (UniProt P42338); settings: Compound concentration 1000.0 nM
[15] = target: BDNF/NT-3 growth factors receptor (Homo sapiens) (UniProt Q16620); settings: Compound concentration 1000.0 nM
Chain of BDNF/NT-3 growth factors receptor (Homo sapiens) (Q16620 32-822 limits assumed): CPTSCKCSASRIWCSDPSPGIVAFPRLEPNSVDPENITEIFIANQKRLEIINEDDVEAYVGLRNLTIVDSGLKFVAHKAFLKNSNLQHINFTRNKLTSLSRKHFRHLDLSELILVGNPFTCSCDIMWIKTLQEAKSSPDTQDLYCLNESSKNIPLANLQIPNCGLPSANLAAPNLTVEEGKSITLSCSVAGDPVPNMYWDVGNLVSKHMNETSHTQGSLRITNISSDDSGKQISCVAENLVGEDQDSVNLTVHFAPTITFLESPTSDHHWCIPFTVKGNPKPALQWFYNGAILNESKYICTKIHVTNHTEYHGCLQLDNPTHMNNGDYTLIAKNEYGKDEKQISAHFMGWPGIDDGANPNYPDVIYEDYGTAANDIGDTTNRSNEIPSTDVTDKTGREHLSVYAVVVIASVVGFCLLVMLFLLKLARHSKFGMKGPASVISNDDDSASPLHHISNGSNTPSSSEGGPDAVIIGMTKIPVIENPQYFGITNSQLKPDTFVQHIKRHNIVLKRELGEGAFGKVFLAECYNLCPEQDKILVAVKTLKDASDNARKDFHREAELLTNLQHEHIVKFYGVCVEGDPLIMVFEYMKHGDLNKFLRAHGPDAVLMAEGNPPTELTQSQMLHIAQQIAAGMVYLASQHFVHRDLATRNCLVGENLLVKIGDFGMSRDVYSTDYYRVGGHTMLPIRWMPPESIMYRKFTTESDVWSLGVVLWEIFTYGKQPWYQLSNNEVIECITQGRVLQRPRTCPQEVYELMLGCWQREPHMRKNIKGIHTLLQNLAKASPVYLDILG

[16] = target: cAMP-dependent protein kinase catalytic subunit beta (Homo sapiens) (UniProt P22694); settings: Compound concentration 1000.0 nM
[17] = target: Serine/threonine-protein kinase PAK 1 (Homo sapiens) (UniProt Q13153); settings: Compound concentration 1000.0 nM
[18] = tested on: Tyrosine-protein kinase ABL1 (Homo sapiens), P00519 [Q252H]; settings: Compound concentration 1000.0 nM
[19] = target: Phosphatidylinositol 4-phosphate 5-kinase type-1 gamma (Homo sapiens) (UniProt O60331); settings: Compound concentration 1000.0 nM
[20] = tested on: Tyrosine-protein kinase ABL1 (Homo sapiens), P00519 [M351T]; settings: Compound concentration 1000.0 nM
[21] = target: Mitogen-activated protein kinase kinase kinase 11 (Homo sapiens) (UniProt Q16584); settings: Compound concentration 1000.0 nM
[22] = target: D(4) dopamine receptor (Homo sapiens) (UniProt P21917); settings: Compound concentration 10.0 uM
[23] = target: AP2-associated protein kinase 1 (Homo sapiens) (UniProt Q2M2I8); settings: Compound concentration 1000.0 nM
Chain of AP2-associated protein kinase 1 (Homo sapiens) (Q2M2I8 whole entry, looked up): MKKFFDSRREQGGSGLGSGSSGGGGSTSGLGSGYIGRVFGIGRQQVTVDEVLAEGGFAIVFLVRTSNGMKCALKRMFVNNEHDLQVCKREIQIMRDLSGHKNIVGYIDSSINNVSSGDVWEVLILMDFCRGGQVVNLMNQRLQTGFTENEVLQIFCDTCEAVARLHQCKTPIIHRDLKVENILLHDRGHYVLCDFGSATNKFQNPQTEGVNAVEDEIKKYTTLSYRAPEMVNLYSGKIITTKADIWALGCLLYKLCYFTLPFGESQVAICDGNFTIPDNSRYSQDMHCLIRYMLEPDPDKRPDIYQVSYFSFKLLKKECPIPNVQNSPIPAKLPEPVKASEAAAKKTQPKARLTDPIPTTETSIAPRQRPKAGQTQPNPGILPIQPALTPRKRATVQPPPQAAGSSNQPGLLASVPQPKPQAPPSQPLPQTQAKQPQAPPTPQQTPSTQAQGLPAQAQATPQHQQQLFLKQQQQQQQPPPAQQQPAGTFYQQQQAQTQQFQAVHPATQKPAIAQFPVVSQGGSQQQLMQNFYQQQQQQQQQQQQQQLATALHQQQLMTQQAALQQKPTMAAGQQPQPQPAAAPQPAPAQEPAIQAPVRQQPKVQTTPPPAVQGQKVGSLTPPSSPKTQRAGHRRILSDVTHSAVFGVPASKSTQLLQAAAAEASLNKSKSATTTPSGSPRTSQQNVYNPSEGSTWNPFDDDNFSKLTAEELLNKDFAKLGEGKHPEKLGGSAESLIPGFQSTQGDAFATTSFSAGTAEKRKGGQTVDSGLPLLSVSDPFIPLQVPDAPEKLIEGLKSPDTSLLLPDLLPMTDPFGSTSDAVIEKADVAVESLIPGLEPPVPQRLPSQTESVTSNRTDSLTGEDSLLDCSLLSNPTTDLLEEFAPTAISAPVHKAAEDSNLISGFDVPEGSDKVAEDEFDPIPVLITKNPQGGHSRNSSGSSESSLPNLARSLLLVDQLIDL

[24] = target: Serine/threonine-protein kinase RIO1 (Homo sapiens) (UniProt Q9BRS2); settings: Compound concentration 1000.0 nM
[25] = target: SRSF protein kinase 2 (Homo sapiens) (UniProt P78362); settings: Compound concentration 1000.0 nM
[26] = target: Tyrosine-protein kinase Fer (Homo sapiens) (UniProt P16591); settings: Compound concentration 1000.0 nM
[27] = target: Cyclin-dependent kinase 16 (Homo sapiens) (UniProt Q00536); settings: Compound concentration 1000.0 nM
[28] = target: Mitogen-activated protein kinase 13 (Homo sapiens) (UniProt O15264); settings: Compound concentration 1000.0 nM
[29] = target: Dual specificity mitogen-activated protein kinase kinase 4 (Homo sapiens) (UniProt P45985); settings: Compound concentration 1000.0 nM
[30] = target: Mitogen-activated protein kinase kinase kinase 2 (Homo sapiens) (UniProt Q9Y2U5); settings: Compound concentration 1000.0 nM
[31] = target: Casein kinase I isoform delta (Homo sapiens) (UniProt P48730); settings: Compound concentration 1000.0 nM
[32] = target: Mitogen-activated protein kinase 4 (Homo sapiens) (UniProt P31152); settings: Compound concentration 1000.0 nM
Chain of Mitogen-activated protein kinase 4 (Homo sapiens) (P31152 whole entry): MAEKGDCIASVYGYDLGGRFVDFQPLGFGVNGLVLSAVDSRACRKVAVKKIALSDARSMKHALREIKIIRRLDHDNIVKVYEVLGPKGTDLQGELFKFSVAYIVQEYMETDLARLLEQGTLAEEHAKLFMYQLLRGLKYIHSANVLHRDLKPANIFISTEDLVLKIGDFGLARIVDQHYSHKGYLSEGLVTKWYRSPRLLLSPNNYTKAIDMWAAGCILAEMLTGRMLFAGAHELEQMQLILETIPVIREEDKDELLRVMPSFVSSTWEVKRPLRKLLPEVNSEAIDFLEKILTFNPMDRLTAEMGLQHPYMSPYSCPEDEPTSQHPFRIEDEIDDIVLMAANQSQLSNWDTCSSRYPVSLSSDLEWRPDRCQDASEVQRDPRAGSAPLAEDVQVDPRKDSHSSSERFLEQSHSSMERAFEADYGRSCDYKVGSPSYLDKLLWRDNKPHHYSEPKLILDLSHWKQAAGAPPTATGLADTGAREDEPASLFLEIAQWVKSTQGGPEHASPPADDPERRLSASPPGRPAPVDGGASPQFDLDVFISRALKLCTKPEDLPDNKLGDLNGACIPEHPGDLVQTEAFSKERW

[33] = target: Ribosomal protein S6 kinase alpha-3 (Homo sapiens) (UniProt P51812); settings: Compound concentration 1000.0 nM
[34] = target: Activin receptor type-1B (Homo sapiens) (UniProt P36896); settings: Compound concentration 1000.0 nM
[35] = tested on: Mast/stem cell growth factor receptor Kit (Homo sapiens), P10721 [L576P]; settings: Compound concentration 1000.0 nM
Chain of Mast/stem cell growth factor receptor Kit (Homo sapiens), P10721 [L576P] (P10721 whole entry L576P): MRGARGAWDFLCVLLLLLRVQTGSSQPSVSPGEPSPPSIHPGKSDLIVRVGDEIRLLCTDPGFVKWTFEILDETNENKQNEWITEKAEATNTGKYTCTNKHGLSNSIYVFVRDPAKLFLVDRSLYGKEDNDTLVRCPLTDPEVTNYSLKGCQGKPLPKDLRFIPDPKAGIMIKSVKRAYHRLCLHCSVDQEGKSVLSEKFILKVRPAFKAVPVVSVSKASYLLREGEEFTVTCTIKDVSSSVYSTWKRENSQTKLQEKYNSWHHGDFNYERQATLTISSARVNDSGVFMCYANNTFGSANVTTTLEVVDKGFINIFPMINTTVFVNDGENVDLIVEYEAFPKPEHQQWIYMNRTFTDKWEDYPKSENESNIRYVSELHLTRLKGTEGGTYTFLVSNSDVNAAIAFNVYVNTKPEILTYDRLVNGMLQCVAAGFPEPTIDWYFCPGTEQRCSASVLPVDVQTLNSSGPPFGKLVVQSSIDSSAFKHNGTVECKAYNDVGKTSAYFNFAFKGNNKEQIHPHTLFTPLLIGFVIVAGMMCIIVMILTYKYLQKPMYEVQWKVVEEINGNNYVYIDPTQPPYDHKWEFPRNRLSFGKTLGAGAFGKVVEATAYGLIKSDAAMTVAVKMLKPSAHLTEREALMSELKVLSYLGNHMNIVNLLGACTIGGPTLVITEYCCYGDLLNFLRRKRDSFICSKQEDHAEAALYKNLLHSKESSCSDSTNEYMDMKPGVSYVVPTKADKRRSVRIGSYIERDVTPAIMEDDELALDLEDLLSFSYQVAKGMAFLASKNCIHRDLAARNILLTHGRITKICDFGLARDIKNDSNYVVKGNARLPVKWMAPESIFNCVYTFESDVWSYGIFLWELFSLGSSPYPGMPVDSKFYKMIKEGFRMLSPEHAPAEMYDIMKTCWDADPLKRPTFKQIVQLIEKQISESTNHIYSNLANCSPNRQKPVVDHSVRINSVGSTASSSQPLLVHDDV

[36] = target: Inhibitor of nuclear factor kappa-B kinase subunit epsilon (Homo sapiens) (UniProt Q14164); settings: Compound concentration 1000.0 nM
[37] = target: Homeodomain-interacting protein kinase 4 (Homo sapiens) (UniProt Q8NE63); settings: Compound concentration 1000.0 nM
[38] = target: Myotonin-protein kinase (Homo sapiens) (UniProt Q09013); settings: Compound concentration 1000.0 nM
[39] = target: Serine/threonine-protein kinase 32B (Homo sapiens) (UniProt Q9NY57); settings: Compound concentration 1000.0 nM
Chain of Serine/threonine-protein kinase 32B (Homo sapiens) (Q9NY57 whole entry): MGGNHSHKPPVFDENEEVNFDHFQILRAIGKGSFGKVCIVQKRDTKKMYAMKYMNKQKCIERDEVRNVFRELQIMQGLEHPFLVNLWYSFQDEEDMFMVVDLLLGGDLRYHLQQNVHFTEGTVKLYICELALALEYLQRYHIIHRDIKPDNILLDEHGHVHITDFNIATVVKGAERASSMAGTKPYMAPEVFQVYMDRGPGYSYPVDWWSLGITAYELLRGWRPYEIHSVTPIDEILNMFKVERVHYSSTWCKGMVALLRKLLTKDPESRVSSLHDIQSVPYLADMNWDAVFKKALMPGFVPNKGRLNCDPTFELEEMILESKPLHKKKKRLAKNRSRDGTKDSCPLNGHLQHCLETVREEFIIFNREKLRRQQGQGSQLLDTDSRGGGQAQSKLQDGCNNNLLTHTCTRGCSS

[40] = target: cAMP-dependent protein kinase catalytic subunit PRKX (Homo sapiens) (UniProt P51817); settings: Compound concentration 1000.0 nM
[41] = target: Serine/threonine-protein kinase 33 (Homo sapiens) (UniProt Q9BYT3); settings: Compound concentration 1000.0 nM
[42] = target: Ribosomal protein S6 kinase alpha-4 (Homo sapiens) (UniProt O75676); settings: Compound concentration 1000.0 nM
Chain of Ribosomal protein S6 kinase alpha-4 (Homo sapiens) (O75676 whole entry, looked up): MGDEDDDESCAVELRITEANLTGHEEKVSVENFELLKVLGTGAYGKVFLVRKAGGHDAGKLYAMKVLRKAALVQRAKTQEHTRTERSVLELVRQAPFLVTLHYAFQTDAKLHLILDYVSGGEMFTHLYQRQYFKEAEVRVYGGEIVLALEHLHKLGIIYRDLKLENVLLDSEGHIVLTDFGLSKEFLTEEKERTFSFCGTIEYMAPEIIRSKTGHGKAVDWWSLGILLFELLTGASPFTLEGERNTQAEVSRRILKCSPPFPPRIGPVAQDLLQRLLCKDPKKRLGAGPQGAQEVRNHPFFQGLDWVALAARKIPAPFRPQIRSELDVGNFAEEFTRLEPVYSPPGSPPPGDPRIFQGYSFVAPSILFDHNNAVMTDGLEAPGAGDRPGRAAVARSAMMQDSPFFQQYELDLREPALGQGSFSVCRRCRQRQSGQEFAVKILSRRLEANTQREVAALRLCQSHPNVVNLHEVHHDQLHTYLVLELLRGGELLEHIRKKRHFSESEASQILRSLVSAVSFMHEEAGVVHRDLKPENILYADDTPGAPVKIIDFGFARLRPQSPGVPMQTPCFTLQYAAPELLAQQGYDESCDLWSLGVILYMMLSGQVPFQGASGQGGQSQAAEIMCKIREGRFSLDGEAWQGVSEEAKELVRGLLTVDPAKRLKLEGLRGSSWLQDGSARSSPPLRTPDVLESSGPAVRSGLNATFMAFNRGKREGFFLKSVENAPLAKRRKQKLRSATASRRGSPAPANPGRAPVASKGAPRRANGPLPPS

[43] = target: Dual specificity mitogen-activated protein kinase kinase 2 (Homo sapiens) (UniProt P36507); settings: Compound concentration 1000.0 nM
[44] = target: Tyrosine-protein kinase JAK3 (Homo sapiens) (UniProt P52333); settings: Compound concentration 1000.0 nM
[45] = target: Cyclin-dependent kinase 11B (Homo sapiens) (UniProt P21127); settings: Compound concentration 1000.0 nM

Chain of Death-associated protein kinase 3 (Homo sapiens) (O43293 whole entry, looked up): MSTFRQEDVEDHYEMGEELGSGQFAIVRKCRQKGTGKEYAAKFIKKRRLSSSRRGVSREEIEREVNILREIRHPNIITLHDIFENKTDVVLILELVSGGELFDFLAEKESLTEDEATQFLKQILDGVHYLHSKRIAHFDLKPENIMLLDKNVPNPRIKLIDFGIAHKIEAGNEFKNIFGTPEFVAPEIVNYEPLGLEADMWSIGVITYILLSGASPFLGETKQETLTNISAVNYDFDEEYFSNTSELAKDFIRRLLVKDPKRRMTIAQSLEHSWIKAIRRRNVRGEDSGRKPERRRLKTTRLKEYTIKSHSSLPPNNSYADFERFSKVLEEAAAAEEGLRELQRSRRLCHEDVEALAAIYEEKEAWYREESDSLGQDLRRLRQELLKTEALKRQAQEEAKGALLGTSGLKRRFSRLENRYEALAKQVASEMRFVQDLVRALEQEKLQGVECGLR

C[C@@H](c1cccc(C#N)c1)n1cc(Cl)cc(C(N)=O)c1=N [(S)-9s]
inactive: residual activity [1] 100% | residual activity [2] 100% | residual activity [3] 100% | residual activity [4] 100% | residual activity [5] 100% | residual activity [6] 86% | residual activity [7] 100% | residual activity [8] 95% | residual activity [9] 89% | residual activity [10] 100% | residual activity [11] 73% | inhibition [12] -6.17% | residual activity [13] 100% | residual activity [14] 93% | residual activity [15] 100% | residual activity [16] 100% | residual activity [17] 100% | residual activity [18] 68% | residual activity [19] 100% | residual activity [21] 100% | inhibition [22] 10.1% | residual activity [23] 100% | residual activity [24] 86% | residual activity [25] 100% | residual activity [26] 100% | residual activity [27] 96% | residual activity [28] 98% | residual activity [29] 82% | residual activity [30] 100% | residual activity [31] 100% | residual activity [32] 90% | residual activity [33] 86% | residual activity [34] 100% | residual activity [35] 86% | residual activity [36] 56% | residual activity [37] 100% | residual activity [38] 100% | residual activity [39] 100% | residual activity [40] 100% | residual activity [41] 100% | residual activity [42] 80% | residual activity [43] 76% | residual activity [44] 100% | residual activity [45] 86%
active: residual activity [20] 0%

C[C@H](c1cccc(C#N)c1)n1cc(Cl)cc(C(N)=O)c1=N [(R)-9s]
inactive: residual activity [1] 100% | residual activity [2] 87% | residual activity [3] 100% | residual activity [4] 96% | residual activity [5] 100% | residual activity [6] 99% | residual activity [7] 94% | residual activity [8] 77% | residual activity [9] 84% | residual activity [10] 89% | residual activity [11] 77% | inhibition [12] -8.15% | residual activity [13] 100% | residual activity [14] 94% | residual activity [15] 100% | residual activity [16] 98% | residual activity [17] 100% | residual activity [18] 100% | residual activity [19] 99% | residual activity [20] 100% | residual activity [21] 100% | inhibition [22] 6.56% | residual activity [23] 100% | residual activity [24] 100% | residual activity [25] 100% | residual activity [26] 100% | residual activity [27] 83% | residual activity [28] 100% | residual activity [29] 100% | residual activity [30] 100% | residual activity [31] 100% | residual activity [32] 82% | residual activity [33] 80% | residual activity [34] 100% | residual activity [35] 93% | residual activity [36] 82% | residual activity [37] 100% | residual activity [38] 100% | residual activity [39] 100% | residual activity [40] 100% | residual activity [41] 92% | residual activity [42] 69% | residual activity [43] 80% | residual activity [44] 94% | residual activity [45] 86%
